8 compounds from ChEMBL document CHEMBL3745625, “Design and synthesis of novel androgen receptor antagonists via molecular modeling” (Bioorg Med Chem, 2016) can be followed below.

By IC50 is commonly meant the concentration at which inhibition is half-maximal.

For data set [1], the system named is LNCaP. The experiment in a line: Cytotoxicity against human LNCAP cells assessed as reduction in cell viability after 4 days by MTT assay in presence of DHT and E2. Conditions: 96 h. The class given is functional, cell-based.
The test system of a further data set is C2C12. Nature of the data set: Cytotoxicity against mouse C2C12 cells assessed as reduction in cell viability at 10 uM after 3 days by MTT assay. Conditions: c2c12, 72 h. Format: cell-based.
In data set [2] the test system is LNCaP. Nature of the data set: Cytotoxicity against human LNCAP cells assessed as growth inhibition at 10 uM after 5 days by MTT assay relative to control. The class given is functional. On the technique in general: Tetrazolium dyes change colour on reduction, which living cells bring about.
The target in data set [3] is T1, Glucocorticoid receptor (Homo sapiens) (UniProt P04150).
T1 sequence (whole entry): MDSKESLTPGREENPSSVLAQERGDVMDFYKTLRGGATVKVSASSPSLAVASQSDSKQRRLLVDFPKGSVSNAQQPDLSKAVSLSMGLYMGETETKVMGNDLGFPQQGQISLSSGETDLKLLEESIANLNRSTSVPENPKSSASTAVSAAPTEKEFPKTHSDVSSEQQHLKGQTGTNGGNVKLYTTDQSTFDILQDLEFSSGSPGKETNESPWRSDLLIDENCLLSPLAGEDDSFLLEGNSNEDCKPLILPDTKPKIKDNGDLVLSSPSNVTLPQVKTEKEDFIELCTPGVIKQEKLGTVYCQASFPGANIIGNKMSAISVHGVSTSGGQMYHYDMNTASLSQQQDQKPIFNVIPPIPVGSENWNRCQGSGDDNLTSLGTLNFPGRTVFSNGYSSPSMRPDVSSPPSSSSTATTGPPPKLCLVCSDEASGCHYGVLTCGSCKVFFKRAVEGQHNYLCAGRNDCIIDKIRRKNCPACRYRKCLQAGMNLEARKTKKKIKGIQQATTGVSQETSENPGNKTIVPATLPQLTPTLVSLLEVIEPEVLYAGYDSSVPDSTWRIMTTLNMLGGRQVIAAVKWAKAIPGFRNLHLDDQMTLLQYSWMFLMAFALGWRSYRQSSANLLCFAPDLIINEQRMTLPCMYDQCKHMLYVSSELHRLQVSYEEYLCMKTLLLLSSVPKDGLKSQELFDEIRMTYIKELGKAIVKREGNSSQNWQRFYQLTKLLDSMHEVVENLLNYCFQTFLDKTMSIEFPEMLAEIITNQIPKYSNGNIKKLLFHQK
The experiment in a line: Antagonist activity at glucocorticoid receptor (unknown origin) expressed in mouse C2C12 cells at 5 uM pretreated for 1 day measured 36 hrs post transfection by luciferase reporter gene assay in presence of GR agonist […]. The class given is cell-based.

Data set [4] has as its system LNCaP. The experiment in a line: Cytotoxicity against human LNCAP cells assessed as reduction in cell viability at 10 uM after 3 days by MTT assay in presence of DHT and E2. Format: functional, cell-based.
The target in data set [5] is T2, Androgen receptor (Mus musculus) (UniProt P19091).
T2 sequence (whole entry): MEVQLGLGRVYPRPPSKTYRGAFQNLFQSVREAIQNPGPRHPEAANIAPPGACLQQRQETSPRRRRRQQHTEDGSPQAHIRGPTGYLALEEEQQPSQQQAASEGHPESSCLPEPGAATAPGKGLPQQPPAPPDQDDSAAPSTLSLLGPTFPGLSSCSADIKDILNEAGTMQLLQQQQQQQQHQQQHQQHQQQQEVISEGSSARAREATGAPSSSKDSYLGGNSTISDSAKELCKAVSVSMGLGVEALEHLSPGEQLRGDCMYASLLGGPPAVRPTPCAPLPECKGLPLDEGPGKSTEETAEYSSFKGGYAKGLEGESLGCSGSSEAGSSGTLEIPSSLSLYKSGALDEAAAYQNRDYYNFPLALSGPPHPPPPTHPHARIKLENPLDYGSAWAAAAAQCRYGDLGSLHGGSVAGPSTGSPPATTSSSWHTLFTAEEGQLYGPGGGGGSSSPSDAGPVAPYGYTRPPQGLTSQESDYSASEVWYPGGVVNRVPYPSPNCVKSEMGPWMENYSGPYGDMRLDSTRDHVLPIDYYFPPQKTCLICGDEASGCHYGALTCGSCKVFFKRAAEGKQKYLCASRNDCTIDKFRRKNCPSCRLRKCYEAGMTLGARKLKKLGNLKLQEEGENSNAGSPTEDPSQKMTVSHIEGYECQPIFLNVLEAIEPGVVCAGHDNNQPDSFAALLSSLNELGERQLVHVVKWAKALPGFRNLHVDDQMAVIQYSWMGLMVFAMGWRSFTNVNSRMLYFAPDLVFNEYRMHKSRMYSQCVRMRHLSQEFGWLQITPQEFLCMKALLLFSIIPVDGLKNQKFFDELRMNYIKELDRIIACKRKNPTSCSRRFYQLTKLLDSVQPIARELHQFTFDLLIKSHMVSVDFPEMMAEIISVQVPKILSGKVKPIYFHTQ
The experiment in a line: Antagonist activity at mouse androgen receptor expressed in mouse C2C12 cells at 5 uM pretreated for 1 day measured 36 hrs post transfection by luciferase reporter gene assay in presence of DHT. Format: cell-based. Background: A reporter such as luciferase makes a cellular process visible.

Data set [6] addresses T3, Estrogen receptor (Homo sapiens) (UniProt P03372).
T3 sequence (whole entry): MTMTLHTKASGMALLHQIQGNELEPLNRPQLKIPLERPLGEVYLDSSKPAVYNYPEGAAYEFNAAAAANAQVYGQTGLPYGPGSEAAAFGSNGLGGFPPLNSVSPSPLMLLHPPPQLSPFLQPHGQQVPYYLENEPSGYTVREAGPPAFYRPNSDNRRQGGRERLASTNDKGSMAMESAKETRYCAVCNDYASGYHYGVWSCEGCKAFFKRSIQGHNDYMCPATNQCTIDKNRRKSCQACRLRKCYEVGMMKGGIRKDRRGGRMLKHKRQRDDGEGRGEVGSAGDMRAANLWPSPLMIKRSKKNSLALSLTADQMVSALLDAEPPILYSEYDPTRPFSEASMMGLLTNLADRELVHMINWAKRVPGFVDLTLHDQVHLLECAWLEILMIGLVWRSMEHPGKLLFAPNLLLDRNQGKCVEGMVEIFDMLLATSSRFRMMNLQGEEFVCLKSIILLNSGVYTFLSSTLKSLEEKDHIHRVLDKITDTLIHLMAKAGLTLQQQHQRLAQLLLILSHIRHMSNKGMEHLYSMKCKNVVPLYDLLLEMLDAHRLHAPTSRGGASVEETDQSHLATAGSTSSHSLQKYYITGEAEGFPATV
The experiment in a line: Antagonist activity at human estrogen receptor expressed in mouse C2C12 cells at 5 uM pretreated for 1 day measured 36 hrs post transfection by luciferase reporter gene assay in presence of ER agonist estradiol. The class given is cell-based.

The structures appear in SMILES notation. The source made the active and inactive calls. No cut-off for these calls is given here.

On to `CC(O)(CS(=O)(=O)c1ccc(F)cc1)C(=O)Nc1ccc(C#N)c(C(F)(F)F)c1` (stereo not drawn) [BICALUTAMIDE], for which, in the data set with LNCaP [1], the concentration for half-maximal inhibition (IC50) turned out to be 2.38 µM.
As for `COc1ccc2c(c1)CCN(c1cnc(C(=O)Nc3cccc(C)n3)cn1)C2`, in the data set with C2C12, the Activity result is “Non-toxic”. Besides, in the data set on LNCaP [2], the “growth inhibition (GI)” value is “Active”. In the data set with LNCaP [1], the IC50 worked out at 0.49 µM. In addition, in data set [3], the inhibition entry is “inactive”. The outcome in the data set on LNCaP [4] was Active. Further, the inhibition result in data set [5] was “Active”.
Regarding `CCCOc1ccc2c(c1)CCN(c1ccc(C(=O)Nc3cccc(C)n3)cn1)C2`, in the data set on C2C12, the Activity result is “Non-toxic”. In the data set with LNCaP [2], the “growth inhibition (GI)” value was “Active”. For the same compound, the IC50 with LNCaP [1] was determined as 1.01 µM. In data set [3], the inhibition result was “inactive”. Further, the outcome in the data set on LNCaP [4] was Active. The inhibition entry in data set [5] was “Active”.
Consider `Cc1cccc(NC(=O)c2ccc(N3CCc4cc(O)ccc4C3)nc2)n1`, for which, in the data set on C2C12, the Activity entry is given as “Non-toxic”. The “growth inhibition (GI)” value in the data set with LNCaP [2] is “Active”. Also, the IC50 in the data set with LNCaP [1] amounted to 1.25 µM. For the same compound, the inhibition result in data set [6] and in data set [5] was “Active” each time. Also, the inhibition result in data set [3] is “inactive”. In addition, in the data set on LNCaP [4], the outcome was Active.
In the case of `Cc1cccc(NC(=O)c2ccc(N3CCc4cc(OCCCc5ccccc5)ccc4C3)nc2)n1`, the Activity result in the data set with C2C12 is reported as “Non-toxic”. The inhibition of growth at 10 µM with LNCaP [2] (120 h, read-out: GI) is 80%. In the data set with LNCaP [1], the IC50 is 0.35 µM. For the same compound, the inhibition entry in data set [3] was “inactive”. In addition, the result in the data set on LNCaP [4] was Active. Further, the inhibition entry in data set [5] is “Active”.
`CCCCOc1ccc2c(c1)CCN(c1ccc(C(=O)Nc3cccc(C)n3)cn1)C2`: in the data set on C2C12, the Activity entry was “Non-toxic”. In addition, in the data set on LNCaP [2], the “growth inhibition (GI)” value was “Active”. Moreover, the IC50 with LNCaP [1] was 0.41 µM. The inhibition entry in data set [3] is “inactive”. In addition, the result with LNCaP [4] was Active. The inhibition result in data set [5] was “Active”.
As for `COc1cccc(NC(=O)c2cnc(N3CCc4ccccc4C3)nc2)c1`, the Activity result in the data set on C2C12 is “Non-toxic”. Also, in the data set on LNCaP [1], the IC50 was 0.58 µM. The inhibition result in data set [3] is “inactive”. Moreover, the result in the data set with LNCaP [4] was Active. For the same compound, in data set [5], the inhibition result was “Active”.
In the case of `Cc1cccc(NC(=O)c2ccc(N3CCc4ccccc4C3)nc2)n1`, the concentration for half-maximal inhibition (IC50) in the data set on LNCaP [1] was found to be 4.46 µM.
